“And” between values parts separate entries of the source, which are not always exact repeats. Equal values may be shown once.
Columns and labels:
CtPilB = CtPilB (Chloracidobacterium thermophilum, UniProt G2LDI3); assay: Malachite green ATPase assay, dose response (benchtop); assay type: biochemical; conditions: IC50, CtPilB ATPase activity, full-length CtPilB, curve fitting, three independent experiments
Description: (§1) The full-length CtPilB and the CtPilBΔN variant (with the first 139 residues at the N terminus truncated) were purified as preciously described ([29]). The HTS was conducted using 384-well microplates (Greiner, cat no. 781101). Each microwell for the screen contained a 15-μL reaction mixture consisting of 75 nM CtPilB, 0.5 mM ATP, 20 μM of a library compound, and 2% DMSO in activity buffer (50 mM N-tris(hydroxymethyl)methyl-3-aminopropanesulfonic acid [TAPS], 50 mM Tris, 75 mM KCl, 50 mM sodium acetate, 5 mM MgCl2, 50 mM ZnCl2 [pH 8.7]) ([29]). Reaction mixtures were incubated at 55°C for 10 min and transferred to ice for 5 min to stop the enzymatic reaction. MG reagent (50 μL) was added to each well for color development. After a 15-minute incubation, 5 μL of 34% (wt/vol) sodium-citrate (MP Chemicals) was added and the plate was mixed by shaking ([28], [29]). Absorbance at 620 nm (A620) was measured using a SpectraMax M5 microplate reader at room temperature. The HTS was performed at the Virginia Tech Center for Drug Discovery (VTCDD) Screening Laboratory.
The effects of inhibitors on the ATPase activity of CtPilB and CtPilBΔN and the binding of MANT-ATP were determined as described previously ([28], [29]). Stock solutions were prepared by dissolving benserazide hydrochloride (Alfa Aesar) or levodopa (Spectrum Chemical Mfg. Corp.) in dimethyl sulfoxide (DMSO; Fisher Biotech). Next, 10× working stocks for given concentrations of an inhibitor were freshly prepared before their use in an experiment. GraphPad Prism v7.04 was used for curve fitting and Student’s t test was used for statistical analysis.

M. xanthus T4P assembly = assay: T4P assembly, dot blot of T4P fractions with anti-pilin antibodies; assay type: cell-based, Myxococcus xanthus; conditions: strain YZ603 (ΔdifE), 16-128 μM tested, P < 0.05
Description: Alternatively, they may inhibit other processes such as pilin production or T4P retraction. […] Briefly, pre-existing pili were sheared off and separated from cells by vortexing and centrifugation. These shaved or unpiliated cells were allowed to assemble new T4P in the presence or absence of a PilB inhibitor. T4P fractions were prepared and analyzed by dot blotting with anti-pilin antibodies as a measure of T4P levels ([28]). […] As such, the T4P fraction represents the level of T4P assembly without complication from T4P retraction ([28]).
Piliation levels of the M. xanthus strain YZ603 (ΔdifE) ([52]) were analyzed by dot-blotting with anti-PilA antibodies as previously described ([28]). This study included a fraction representing the “Basal” T4P levels for a given treatment. This is the T4P fraction from sheared cells mixed with an inhibitor and pre-equilibrated on ice for 10 min before the cells were incubated at 32°C for 20 min to allow T4P regrowth or assembly. These fractions were used as controls and subtracted as the baseline in data analysis.

A. nosocomialis = assay: Growth in liquid culture; assay type: cell-based, Acinetobacter nosocomialis; conditions: up to 512 μM (highest tested), data not shown
Excerpt: (§2) These include many bacteria with alarming prevalence for causing antibiotic-resistant infection ([12]). […] This is important because, for the development of antivirulence chemotherapies, the small molecules should not have an inhibitory effect on bacterial growth. Otherwise, they would select for resistance, just like antibiotics. From a chemical structure perspective, levodopa is 3,4-dihydroxyphenylalanine (Fig. 2), or phenylalanine with two hydroxyl groups. […] These preliminary studies of structure and activity relationships are consistent with benserazide and levodopa being specific inhibitors of PilB. As mentioned earlier, work with trifluoperazine ([25]) and P4MP4 ([26], [27]) has provided the proof of principle for antivirulence therapies with anti-T4P compounds. It is also encouraging that a compound targeting the adhesin function of the type 1 pilus of the uropathogenic E. coli (UPEC) ([47]) has moved to the clinical trial phase in the drug development pipeline ([48]).

Escherichia coli = assay: Growth in liquid culture; assay type: cell-based; conditions: up to 512 μM (highest tested), data not shown
Excerpt: as §2

[1] = test system: M. xanthus adventurous (A) motility; assay: Expansion of ΔpilB strain DK10416 (A motility only) on hard agar; assay type: cell-based, Myxococcus xanthus; conditions: up to 128 μM
Excerpt: On the other hand, YZ1674 and YZ2232, which have both A and S motility, were affected in their expansion on hard agar by both compounds (Fig. S4 and S5) at concentrations similar to those on soft agar. Indeed, the results with hard agar plates mirror those with soft agar. […] Because neither benserazide nor levodopa had any effect on A motility (Fig. S3C and D), the net differences on hard agar at different concentrations of the inhibitor (Fig. S4) can be viewed as confirmation of its effect on S motility (Fig. 5). […] It is plausible that this inhibition is attributable to their effects on the PilB ATPase in vivo.
M. xanthus was grown and maintained at 32°C in Casitone-yeast extract (CYE) medium ([49]). Motility assays were conducted with strains DK10416 (ΔpilB) ([40]), YZ1674 (ΔpilB att::MxpilB) ([50]), and YZ2232 (ΔpilB att::MC3pilB) ([30], [51]) as previously described ([28]). One modification was that 10% India ink was included in the cell suspension to mark the initial spot on agar plates. All experiments were conducted in quintuplicates and the diameter of the initial spot, as marked by India ink, was subtracted for data analysis.

CtPilBΔN = target: T1, CtPilBΔN (Chloracidobacterium thermophilum, UniProt G2LDI3); assay: ATPase assay of truncated CtPilB variant without N-terminal MshEN domain; assay type: biochemical; conditions: read-out: IC50, ATPase activity of PilBΔN
T1 sequence (G2LDI3 140-614): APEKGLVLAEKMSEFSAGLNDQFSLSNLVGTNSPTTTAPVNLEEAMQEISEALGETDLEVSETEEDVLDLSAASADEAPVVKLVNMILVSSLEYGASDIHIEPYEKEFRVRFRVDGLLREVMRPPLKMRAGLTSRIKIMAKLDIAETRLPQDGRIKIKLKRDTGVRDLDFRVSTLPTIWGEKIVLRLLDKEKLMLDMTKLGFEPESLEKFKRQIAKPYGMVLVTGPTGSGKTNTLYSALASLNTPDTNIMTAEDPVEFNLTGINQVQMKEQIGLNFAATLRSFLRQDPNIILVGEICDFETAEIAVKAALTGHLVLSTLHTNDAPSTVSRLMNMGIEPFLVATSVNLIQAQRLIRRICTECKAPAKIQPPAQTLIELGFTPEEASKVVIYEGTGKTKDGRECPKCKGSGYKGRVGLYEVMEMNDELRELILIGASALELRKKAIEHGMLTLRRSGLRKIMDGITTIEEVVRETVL
Excerpt: CtPilB, like its orthologue MshE ([35]), has a MshEN-like cyclic di-GMP-binding domain at its N terminus and a well-conserved ATPase domain at its C terminus ([28], [29]). To determine which domain the inhibitors interact with, we tested the effects of benserazide and levodopa on the ATPase activity of a truncated CtPilB variant (PilBΔN) without the N-terminal MshEN domain ([29]). […] These values are similar to those against the full-length PilB (Fig. 2).
as §1, with “MG reagent (50 μL) was added to each well for color development. After a 15-minute incubation, 5 μL of 34% (wt/vol) sodium-citrate (MP Chemicals) was added and the plate was mixed by shaking ([28], [29]).” left out, “The HTS was performed at the Virginia Tech Center for Drug Discovery (VTCDD) Screening Laboratory.” left out
The effects of inhibitors on the ATPase activity of CtPilB and CtPilBΔN and the binding of MANT-ATP were determined as described previously ([28], [29]). […]

CtPilB, sequence (G2LDI3 entry or part of it): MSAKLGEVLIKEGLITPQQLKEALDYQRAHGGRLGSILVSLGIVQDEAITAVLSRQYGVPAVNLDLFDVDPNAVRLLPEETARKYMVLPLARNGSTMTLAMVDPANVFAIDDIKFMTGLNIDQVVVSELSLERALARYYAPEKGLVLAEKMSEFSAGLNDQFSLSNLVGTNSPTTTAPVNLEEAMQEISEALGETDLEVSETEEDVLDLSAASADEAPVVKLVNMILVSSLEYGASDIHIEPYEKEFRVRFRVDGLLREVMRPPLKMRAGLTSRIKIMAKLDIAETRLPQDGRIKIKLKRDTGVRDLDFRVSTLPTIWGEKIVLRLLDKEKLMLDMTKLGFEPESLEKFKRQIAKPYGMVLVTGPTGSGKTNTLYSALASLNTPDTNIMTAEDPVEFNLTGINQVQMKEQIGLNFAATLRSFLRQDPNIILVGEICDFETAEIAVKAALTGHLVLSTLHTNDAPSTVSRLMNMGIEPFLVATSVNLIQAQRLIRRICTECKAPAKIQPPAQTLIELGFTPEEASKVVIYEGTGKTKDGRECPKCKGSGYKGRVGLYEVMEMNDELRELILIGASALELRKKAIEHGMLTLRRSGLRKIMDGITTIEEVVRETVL

| SMILES | IC50 (CtPilB) | concentration giving statistically significant decrease in T4P assembly (M. xanthus T4P assembly) | effect on growth in liquid culture (A. nosocomialis) | effect on growth in liquid culture (Escherichia coli) | effect on expansion of DK10416 (A motility) [1] | IC50 (CtPilBΔN) |
| --- | --- | --- | --- | --- | --- | --- |
| NC(CO)C(=O)NNCc1ccc(O)c(O)c1O (stereo not drawn) [benserazide] | 2.1 ± 0.4 µM | ≥ 16 µM | neither benserazide nor levodopa had any discernible effect on the growth | neither benserazide nor levodopa had any discernible effect on the growth | neither benserazide nor levodopa influenced the expansion of DK10416 | 2.2 ± 0.4 µM |
| N[C@@H](Cc1ccc(O)c(O)c1)C(=O)O [levodopa, 3,4-dihydroxyphenylalanine] | 58 µM and 58.8 µM | ≥ 32 µM | neither benserazide nor levodopa had any discernible effect on the growth | neither benserazide nor levodopa had any discernible effect on the growth | neither benserazide nor levodopa influenced the expansion of DK10416 | 76.2 ± 9.2 µM |

— article PMC9769694, “Discovery of Two Inhibitors of the Type IV Pilus Assembly ATPase PilB as Potential Antivirulence Compounds” (Microbiology Spectrum, 2022)
